Where two headings read alike, the source gives them in different places.
What was measured:
Experiment in all cases: TGFα-shedding assay-based GPCR screening with chimeric Gα subunit proteins
Type in all cases: cell-based
Details in all cases: 10µM, Favipiravir 100μM
[1] = molecular target: T1, 348 GPCRs (Homo sapiens, UniProt O00254)
T1 construct: expressed in transfected cells; host or cells: HEK293A
T1 sequence (O00254 22-374): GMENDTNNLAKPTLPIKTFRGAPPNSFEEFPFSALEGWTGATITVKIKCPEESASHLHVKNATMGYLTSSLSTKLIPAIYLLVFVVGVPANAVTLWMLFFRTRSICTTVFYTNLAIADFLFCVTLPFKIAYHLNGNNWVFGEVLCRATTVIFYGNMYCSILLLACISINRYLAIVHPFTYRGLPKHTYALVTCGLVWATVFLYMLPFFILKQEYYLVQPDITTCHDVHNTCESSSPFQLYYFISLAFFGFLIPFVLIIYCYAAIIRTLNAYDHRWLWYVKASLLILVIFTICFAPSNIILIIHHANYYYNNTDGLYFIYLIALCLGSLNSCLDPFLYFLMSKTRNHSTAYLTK

[2] = molecular target: 348 GPCRs (Homo sapiens, UniProt P41146)
[3] = molecular target: T2, 348 GPCRs (Homo sapiens, UniProt P34969)
T2 construct: expressed in transfected cells; host or cells: HEK293A

[4] = molecular target: T3, 348 GPCRs (Homo sapiens, UniProt Q96RI8)
T3 construct: expressed in transfected cells; host or cells: HEK293A
T3 sequence (Q96RI8 1-345): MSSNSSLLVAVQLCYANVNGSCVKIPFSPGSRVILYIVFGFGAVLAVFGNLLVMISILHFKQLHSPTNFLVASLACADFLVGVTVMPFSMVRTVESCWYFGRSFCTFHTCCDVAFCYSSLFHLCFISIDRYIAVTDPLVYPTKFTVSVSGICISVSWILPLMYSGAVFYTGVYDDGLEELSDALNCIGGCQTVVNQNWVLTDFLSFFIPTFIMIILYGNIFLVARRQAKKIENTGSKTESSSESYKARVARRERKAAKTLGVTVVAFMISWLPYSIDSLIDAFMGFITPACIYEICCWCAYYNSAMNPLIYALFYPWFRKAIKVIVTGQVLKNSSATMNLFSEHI

[5] = molecular target: T4, 348 GPCRs (Homo sapiens, UniProt P32246)
T4 construct: expressed in transfected cells; host or cells: HEK293A
T4 sequence (P32246 1-355): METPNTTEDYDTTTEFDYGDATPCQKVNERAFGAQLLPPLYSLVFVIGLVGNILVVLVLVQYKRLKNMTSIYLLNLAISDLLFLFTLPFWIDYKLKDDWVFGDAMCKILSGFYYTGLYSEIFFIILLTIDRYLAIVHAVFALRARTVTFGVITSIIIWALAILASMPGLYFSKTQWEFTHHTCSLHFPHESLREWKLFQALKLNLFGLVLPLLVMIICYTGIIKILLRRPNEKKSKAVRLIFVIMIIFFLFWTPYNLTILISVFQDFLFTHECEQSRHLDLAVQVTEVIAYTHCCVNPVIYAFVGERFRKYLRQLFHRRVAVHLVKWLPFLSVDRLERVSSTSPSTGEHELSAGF

[6] = molecular target: T5, 348 GPCRs (Homo sapiens, UniProt P50406)
T5 construct: expressed in transfected cells; host or cells: HEK293A

[7] = molecular target: T6, 348 GPCRs (Homo sapiens, UniProt Q9HC97)
T6 construct: expressed in transfected cells; host or cells: HEK293A

[8] = molecular target: T7, 348 GPCRs (Homo sapiens, UniProt P28335)
T7 sequence (P28335 33-458): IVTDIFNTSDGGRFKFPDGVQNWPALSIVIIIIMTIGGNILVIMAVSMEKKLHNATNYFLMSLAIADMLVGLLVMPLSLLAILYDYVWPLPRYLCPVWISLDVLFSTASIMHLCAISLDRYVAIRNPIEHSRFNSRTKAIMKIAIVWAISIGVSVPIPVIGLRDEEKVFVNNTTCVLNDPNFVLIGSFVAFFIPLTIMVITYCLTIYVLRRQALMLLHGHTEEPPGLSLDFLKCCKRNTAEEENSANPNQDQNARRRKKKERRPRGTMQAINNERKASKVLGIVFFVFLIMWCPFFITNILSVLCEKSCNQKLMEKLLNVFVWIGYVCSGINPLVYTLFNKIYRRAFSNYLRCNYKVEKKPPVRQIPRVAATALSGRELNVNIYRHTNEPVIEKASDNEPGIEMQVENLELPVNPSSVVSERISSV

[9] = F2RL2 (coagulation factor II (thrombin) receptor-like 2), read-out: % GPCR activation compared to TPA
[10] = OPRL1 (opioid Related Nociceptin Receptor 1), read-out: % GPCR activation compared to TPA
[11] = 5-HT7 (5-hydroxytryptamine receptor 7), read-out: % GPCR activation compared to TPA
[12] = TAAR6 (trace amine associated receptor 6), read-out: % GPCR activation compared to TPA
[13] = CCR1 (chemokine (C-C motif) receptor 1), read-out: % GPCR activation compared to TPA
[14] = 5-HT6 (5-hydroxytryptamine receptor 6), read-out: % GPCR activation compared to TPA
[15] = GPR35 (G protein-coupled receptor 35), read-out: % GPCR activation compared to TPA
[16] = 5-HT2C (5-hydroxytryptamine receptor 2C), read-out: % GPCR activation compared to TPA
[17] = read-out: % GPCR activation compared to TPA, F2RL2 (coagulation factor II (thrombin) receptor-like 2)
[18] = read-out: % GPCR activation compared to TPA, OPRL1 (opioid Related Nociceptin Receptor 1)
[19] = read-out: % GPCR activation compared to TPA, 5-HT7 (5-hydroxytryptamine receptor 7)
[20] = read-out: % GPCR activation compared to TPA, TAAR6 (trace amine associated receptor 6)
[21] = read-out: % GPCR activation compared to TPA, CCR1 (chemokine (C-C motif) receptor 1)
[22] = read-out: % GPCR activation compared to TPA, 5-HT6 (5-hydroxytryptamine receptor 6)
[23] = read-out: % GPCR activation compared to TPA, GPR35 (G protein-coupled receptor 35)
[24] = read-out: % GPCR activation compared to TPA, 5-HT2C (5-hydroxytryptamine receptor 2C)

T5 sequence (P50406 whole entry): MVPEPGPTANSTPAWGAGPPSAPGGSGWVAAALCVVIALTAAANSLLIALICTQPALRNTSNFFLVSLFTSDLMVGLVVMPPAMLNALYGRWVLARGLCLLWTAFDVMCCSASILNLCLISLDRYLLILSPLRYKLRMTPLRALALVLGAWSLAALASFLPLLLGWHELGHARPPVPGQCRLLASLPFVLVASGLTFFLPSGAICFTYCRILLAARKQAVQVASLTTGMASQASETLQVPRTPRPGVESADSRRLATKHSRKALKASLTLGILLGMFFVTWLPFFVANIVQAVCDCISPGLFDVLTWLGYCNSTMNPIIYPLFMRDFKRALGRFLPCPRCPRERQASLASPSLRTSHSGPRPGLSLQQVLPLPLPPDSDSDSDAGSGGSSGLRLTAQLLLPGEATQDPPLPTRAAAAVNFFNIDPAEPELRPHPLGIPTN
T2 sequence (P34969 whole entry): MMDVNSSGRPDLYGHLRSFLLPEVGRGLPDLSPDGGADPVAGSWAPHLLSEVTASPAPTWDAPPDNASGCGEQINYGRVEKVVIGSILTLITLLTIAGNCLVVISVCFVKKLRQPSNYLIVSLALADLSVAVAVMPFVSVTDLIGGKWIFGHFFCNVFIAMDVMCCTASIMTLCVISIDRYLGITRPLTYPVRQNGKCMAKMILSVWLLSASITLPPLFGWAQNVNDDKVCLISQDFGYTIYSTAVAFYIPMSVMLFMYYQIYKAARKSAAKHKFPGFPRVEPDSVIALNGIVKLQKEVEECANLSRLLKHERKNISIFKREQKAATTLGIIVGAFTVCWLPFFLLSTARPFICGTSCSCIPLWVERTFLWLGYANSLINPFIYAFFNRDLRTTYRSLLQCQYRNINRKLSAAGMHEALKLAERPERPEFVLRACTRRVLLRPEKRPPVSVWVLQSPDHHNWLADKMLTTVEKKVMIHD
348 GPCRs (Homo sapiens, UniProt P41146), sequence (P41146 whole entry): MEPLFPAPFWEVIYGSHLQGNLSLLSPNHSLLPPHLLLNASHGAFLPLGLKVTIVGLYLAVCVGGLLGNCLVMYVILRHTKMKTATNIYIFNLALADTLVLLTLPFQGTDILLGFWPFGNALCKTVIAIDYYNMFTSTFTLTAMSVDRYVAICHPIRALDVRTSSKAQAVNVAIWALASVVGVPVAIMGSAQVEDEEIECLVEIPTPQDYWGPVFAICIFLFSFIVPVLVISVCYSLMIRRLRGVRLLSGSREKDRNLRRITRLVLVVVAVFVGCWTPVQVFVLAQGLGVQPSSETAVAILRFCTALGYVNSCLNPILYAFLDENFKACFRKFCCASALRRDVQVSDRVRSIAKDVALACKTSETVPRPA
T6 sequence (Q9HC97 whole entry): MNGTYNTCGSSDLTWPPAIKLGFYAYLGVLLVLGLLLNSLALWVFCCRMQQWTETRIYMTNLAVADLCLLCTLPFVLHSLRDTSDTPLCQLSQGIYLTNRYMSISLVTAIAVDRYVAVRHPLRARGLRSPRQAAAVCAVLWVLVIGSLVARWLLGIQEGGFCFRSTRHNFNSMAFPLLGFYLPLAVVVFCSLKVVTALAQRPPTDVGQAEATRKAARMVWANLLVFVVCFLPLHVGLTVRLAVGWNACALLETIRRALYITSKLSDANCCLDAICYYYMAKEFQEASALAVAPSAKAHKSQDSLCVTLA

| SMILES | activation at 10 µM [1, 9] [%] | activation at 10 µM [2, 10] [%] | activation at 100 µM [3, 11] [%] | activation at 100 µM [4, 12] [%] | activation at 100 µM [5, 13] [%] | activation at 100 µM [6, 14] [%] | activation at 10 µM [7, 15] [%] | activation at 100 µM [8, 16] [%] | activation at 10 µM [1, 17] [%] | activation at 10 µM [2, 18] [%] | activation at 100 µM [3, 19] [%] | activation at 100 µM [4, 20] [%] | activation at 100 µM [5, 21] [%] | activation at 100 µM [6, 22] [%] | activation at 10 µM [7, 23] [%] | activation at 100 µM [8, 24] [%] |
| --- | --- | --- | --- | --- | --- | --- | --- | --- | --- | --- | --- | --- | --- | --- | --- | --- |
| CC(C)C(=O)OC[C@H]1O[C@@H](n2ccc(NO)nc2=O)[C@H](O)[C@@H]1O [molnupiravir] | -1.18 | -2.5 | -0.625 | -2.31 | -1.8 | -0.864 | -3.01 | -2.97 | – | – | – | – | – | – | – | – |
| CCC(CC)COC(=O)[C@H](C)N[P@](=O)(OC[C@H]1O[C@@](C#N)(c2ccc3c(N)ncnn23)[C@H](O)[C@@H]1O)Oc1ccccc1 [remdesivir] | – | – | – | – | – | – | – | – | -1.15 | -1.46 | 1.8 | -0.419 | 2.29 | 0.785 | 0.537 | -0.0017 |
| CC(C)OC(=O)[C@H](C)N[P@](=O)(OC[C@H]1O[C@@H](n2ccc(=O)[nH]c2=O)[C@](C)(F)[C@@H]1O)Oc1ccccc1 [sofosbuvir] | – | – | – | – | – | – | – | – | 1.05 | 0.297 | -1.41 | -3.52 | -1.9 | -1.12 | -7.86 | -0.973 |

More lines, main results first:

| activation at 10 µM [1, 9] [%] | activation at 10 µM [2, 10] [%] | activation at 100 µM [3, 11] [%] | activation at 100 µM [4, 12] [%] | activation at 100 µM [5, 13] [%] | activation at 100 µM [6, 14] [%] | activation at 10 µM [7, 15] [%] | activation at 100 µM [8, 16] [%] | SMILES | activation at 10 µM [1, 17] [%] | activation at 10 µM [2, 18] [%] | activation at 100 µM [3, 19] [%] | activation at 100 µM [4, 20] [%] | activation at 100 µM [5, 21] [%] | activation at 100 µM [6, 22] [%] | activation at 10 µM [7, 23] [%] | activation at 100 µM [8, 24] [%] |
| --- | --- | --- | --- | --- | --- | --- | --- | --- | --- | --- | --- | --- | --- | --- | --- | --- |
| -2.64 | -0.87 | 1.1 | -1.31 | 4.02 | -0.422 | 4.18 | 0.017 | N#C[C@@]1(c2ccc3c(N)ncnn23)O[C@H](CO)[C@@H](O)[C@H]1O [GS441524] | – | – | – | – | – | – | – | – |
| -0.958 | -1.44 | 0.723 | -1.51 | 5.15 | -1.66 | 3 | 3.15 | NC(=O)c1nc(F)cnc1O [favipiravir, 6-fluoro-3-hydroxy-2-pyrazinecarboxamide] | – | – | – | – | – | – | – | – |
